# Data: the supplement of paper PMC10307832
# Legend:
# Test in all cases: relative viability (nuclei count vs DMSO), 5 days (fraction); higher = more cells survive
# NCI-H3122 = test system: NCI-H3122
# Summary of the method: (§1)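 For relative viability, nuclei counts in treated wells were divided by those in vehicle wells. Lung cancer cell lines had been pin-tool dosed in 1536-well plates the day after seeding and cultured for 5 days, then fixed and stained in one step (final 0.05% Triton X-100, 1% formaldehyde, 1 ug/ml Hoechst) and imaged at 4×. Doses were one drug alone or a fixed anchor-drug dose plus five library-drug doses (not always all listed) in √10 steps, and values are duplicate-plate medians.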
# SK-LU-1 = test system: SK-LU-1
# Summary of the method: as §1
# NCI-H1666 = test system: NCI-H1666
# Summary of the method: as §1
# EMC-BAC-2 = test system: EMC-BAC-2
# Summary of the method: as §1
# LXF-289 = test system: LXF-289
# Summary of the method: as §1
# LK-2 = test system: LK-2
# Summary of the method: as §1
# EPLC-272H = test system: EPLC-272H
# Summary of the method: as §1
# NCI-H322M = test system: NCI-H322M
# Summary of the method: as §1
# NCI-H23 = test system: NCI-H23
# Summary of the method: as §1
# LOU-NH91 = test system: LOU-NH91
# Summary of the method: as §1
# NCI-H1975 = test system: NCI-H1975
# Summary of the method: as §1
# NCI-H2126 = test system: NCI-H2126
# Summary of the method: as §1
# HCC-827 = test system: HCC-827
# Summary of the method: as §1
# SW 1573 = test system: SW 1573
# Summary of the method: as §1
# LU99A = test system: LU99A
# Summary of the method: as §1
# NCI-H2085 = test system: NCI-H2085
# Summary of the method: as §1
# ChaGo-K-1 = test system: ChaGo-K-1
# Summary of the method: as §1
# RERF-LC-KJ = test system: RERF-LC-KJ
# Summary of the method: as §1
# HCC-78 = test system: HCC-78
# Summary of the method: as §1
# NCI-H2405 = test system: NCI-H2405
# Summary of the method: as §1
compound,measurement,setting,value
O=C(O)c1ccc(-c2c[nH]c3ncc(-c4ccccc4)cc23)cc1C1CCCC1 + CC1(C)CCC(c2ccc(Cl)cc2)=C(CN2CCN(c3ccc(C(=O)NS(=O)(=O)c4ccc(N[C@H](CCN5CCOCC5)CSc5ccccc5)c(S(=O)(=O)C(F)(F)F)c4)cc3)CC2)C1 [Navitoclax] (partner 0.5 µM),relative viability,NCI-H3122; first compound 0.04 µM,1.02
same,relative viability,NCI-H3122; first compound 0.1265 µM,1
same,relative viability,NCI-H3122; first compound 0.4 µM,1.03
same,relative viability,NCI-H3122; first compound 1.265 µM,0.976
same,relative viability,SK-LU-1; first compound 0.04 µM,0.982
same,relative viability,SK-LU-1; first compound 0.1265 µM,1.01
same,relative viability,SK-LU-1; first compound 0.4 µM,0.697
same,relative viability,SK-LU-1; first compound 1.265 µM,0.482
same,relative viability,NCI-H1666; first compound 0.04 µM,1.02
same,relative viability,NCI-H1666; first compound 0.1265 µM,1.01
same,relative viability,NCI-H1666; first compound 0.4 µM,0.849
same,relative viability,NCI-H1666; first compound 1.265 µM,0.584
same,relative viability,EMC-BAC-2; first compound 0.04 µM,1.18
same,relative viability,EMC-BAC-2; first compound 0.1265 µM,1.23
same,relative viability,EMC-BAC-2; first compound 0.4 µM,1.16
same,relative viability,EMC-BAC-2; first compound 1.265 µM,1.22
same,relative viability,LXF-289; first compound 0.04 µM,0.936
same,relative viability,LXF-289; first compound 0.1265 µM,0.883
same,relative viability,LXF-289; first compound 0.4 µM,0.658
same,relative viability,LXF-289; first compound 1.265 µM,0.48
same,relative viability,LK-2; first compound 0.04 µM,0.9
same,relative viability,LK-2; first compound 0.1265 µM,0.876
same,relative viability,LK-2; first compound 0.4 µM,0.795
same,relative viability,LK-2; first compound 1.265 µM,0.687
same,relative viability,EPLC-272H; first compound 0.04 µM,1.01
same,relative viability,EPLC-272H; first compound 0.1265 µM,1.16
same,relative viability,EPLC-272H; first compound 0.4 µM,1.06
same,relative viability,EPLC-272H; first compound 1.265 µM,0.811
same,relative viability,NCI-H322M; first compound 0.04 µM,1.19
same,relative viability,NCI-H322M; first compound 0.1265 µM,1.37
same,relative viability,NCI-H322M; first compound 0.4 µM,1.34
same,relative viability,NCI-H322M; first compound 1.265 µM,1.03
same,relative viability,NCI-H23; first compound 0.04 µM,0.804
same,relative viability,NCI-H23; first compound 0.1265 µM,0.944
same,relative viability,NCI-H23; first compound 0.4 µM,0.757
same,relative viability,NCI-H23; first compound 1.265 µM,0.724
same,relative viability,LOU-NH91; first compound 0.04 µM,0.759
same,relative viability,LOU-NH91; first compound 0.1265 µM,0.73
same,relative viability,LOU-NH91; first compound 0.4 µM,0.68
same,relative viability,LOU-NH91; first compound 1.265 µM,0.541
same,relative viability,NCI-H1975; first compound 0.04 µM,1.13
same,relative viability,NCI-H1975; first compound 0.1265 µM,1.25
same,relative viability,NCI-H1975; first compound 0.4 µM,1.1
same,relative viability,NCI-H1975; first compound 1.265 µM,1.17
same,relative viability,NCI-H2126; first compound 0.04 µM,0.892
same,relative viability,NCI-H2126; first compound 0.1265 µM,0.875
same,relative viability,NCI-H2126; first compound 0.4 µM,0.745
same,relative viability,NCI-H2126; first compound 1.265 µM,0.685
same,relative viability,HCC-827; first compound 0.04 µM,0.95
same,relative viability,HCC-827; first compound 0.1265 µM,1.04
same,relative viability,HCC-827; first compound 0.4 µM,0.979
same,relative viability,HCC-827; first compound 1.265 µM,0.798
same,relative viability,SW 1573; first compound 0.04 µM,1.02
same,relative viability,SW 1573; first compound 0.1265 µM,1.22
same,relative viability,SW 1573; first compound 0.4 µM,1.05
same,relative viability,SW 1573; first compound 1.265 µM,0.619
same,relative viability,LU99A; first compound 0.04 µM,0.818
same,relative viability,LU99A; first compound 0.1265 µM,0.987
same,relative viability,LU99A; first compound 0.4 µM,0.735
same,relative viability,LU99A; first compound 1.265 µM,0.721
same,relative viability,NCI-H2085; first compound 0.04 µM,1.06
same,relative viability,NCI-H2085; first compound 0.1265 µM,1.1
same,relative viability,NCI-H2085; first compound 0.4 µM,1.04
same,relative viability,NCI-H2085; first compound 1.265 µM,0.72
same,relative viability,ChaGo-K-1; first compound 0.04 µM,1.16
same,relative viability,ChaGo-K-1; first compound 0.1265 µM,1.3
same,relative viability,ChaGo-K-1; first compound 0.4 µM,0.888
same,relative viability,ChaGo-K-1; first compound 1.265 µM,1.32
same,relative viability,RERF-LC-KJ; first compound 0.04 µM,1.05
same,relative viability,RERF-LC-KJ; first compound 0.1265 µM,1.24
same,relative viability,RERF-LC-KJ; first compound 0.4 µM,0.842
same,relative viability,RERF-LC-KJ; first compound 1.265 µM,0.772
same,relative viability,HCC-78; first compound 0.04 µM,0.849
same,relative viability,HCC-78; first compound 0.1265 µM,0.904
same,relative viability,HCC-78; first compound 0.4 µM,0.802
same,relative viability,HCC-78; first compound 1.265 µM,0.542
same,relative viability,NCI-H2405; first compound 0.04 µM,0.944
same,relative viability,NCI-H2405; first compound 0.1265 µM,0.811
same,relative viability,NCI-H2405; first compound 0.4 µM,0.864
same,relative viability,NCI-H2405; first compound 1.265 µM,0.348
